According to patent US4797506A, “6-substituted prostaglandins E1 and process for producing same” (Teijin Limited, priority 1984, dated 1989):

Experiments:
[1] = system: ulcer formation induced by indomethacin; assay: Inhibition of indomethacin-induced ulcer formation in rats (antiulcerative effect); assay type: in vivo, Wister male rats; details: Rattus norvegicus, P.O., 30 minutes before oral indomethacin 20 mg/kg, ulcer length 5 hours after indomethacin
Protocol: (i) Determination of Antiulcerative Effect
The inhibiting effect on ulcer formation induced by indomethacin was examined by using rats. Wister male rats (7 weeks old, body weight 220 g) were abstained from food for 24 hours except giving water and then subjected to experiments.
The sample compounds to be tested were dissolved in a phosphoric acid buffer (pH 7.4) containing 0.9% NaCl and the solution was orally administered to the rats. 30 minutes after the administration, indomethacin was orally administered to the rats at a dose of 20 mg/kg. 5 hours after the administration of the indomethacin, the rats were killed and the ulcer formation in the stomach was examined by determining the length of the ulcer formation portion under a stereomicroscope. From this measurement, the inhibition of ulcer formation by the sample compounds was calculated to determine the ED50 values.

[2] = system: platelet aggregation; assay: In vitro platelet aggregation inhibition (ADP-induced, PRP); assay type: cell-based, Japanese white male domestic rabbits; details: Oryctolagus cuniculus, rabbit PRP, 10 μM ADP, 37° C., sample in ethanol diluted with phosphoric acid buffer pH 7.4, left at 0° C. for 4 hours, lowest concentration at which the inhibition is 50%, read-out: Anti-platelet aggregation effect IC50
Protocol: (ii) In vitro PlateletAAggregation Inhibition Effect
The in vitro platelet aggregation inhibition effect of the sample compounds to be tested was examined by using rabbits. That is, blood was collected from the ear vein of native Japanese white male domestic rabbits weighing 2.5 to 3.5 kg. The collected blood was 9 parts by volume per 1 part by volume of a 3.8% sodium citrate solution. The blood was centrifuged at 100 r.p.m. for 10 minutes. The upper layer portion was separated as PRP (rich in platelet blood plasma). The lower layer portion was further centrifuged at 2800 r.p.m. for 10 minutes to divide it into two layers. The upper layer portion was separated as PPP (poor in platelet blood plasma). The member of the platelet was diluted with PPP to 6 to 7×10^' /μl. After the adjustment, 25 μl of the sample compound was added to 250 μl of PRP, which was preincubated at a temperature of 37° C. for 2 minutes. […]
When the activity of the sample compounds was determined, the ethanol solution was diluted with a phosphoric acid buffer (pH 7.4). The ethanol solution diluted with the buffer was left to stand at a temperature of 0° C. for 4 hours, after which the activity of the sample compounds was determined in the same manner.
The agglutination inhibition was calculated by the following formula: [formula] […]

[3] = system: platelet aggregation; details: compared with prostacyclin; cited from earlier work

Row | Compound | ED50 [1] | IC50 [2] | platelet aggregation inhibition effect [3]
1 | CCCCC(C)(O)C/C=C/[C@H]1[C@H](O)CC(=O)[C@@H]1CC(CCCCC(=O)OC)[N+](=O)[O-] (stereo partly drawn) | 0.022 mg/kg | > 100 µg/mL | 
2 | CCCCC[C@H](O)/C=C/[C@H]1[C@H](O)CC(=O)[C@@H]1CC(=O)CCCCC(=O)O [6-oxoprostaglandin E1] |  |  | as strong as those of prostacyclin
